The values below come from patent publication US8193156B1, “Dipeptides incorporating selenoamino acids with enhanced bioavailability—synthesis, pharmaceutical and cosmeceutical applications thereof” (Sami Labs Ltd, priority 2006, dated 2012).

The nature of data set [1]: Aqueous solubility measurements. It counts as physicochemical. The following applies: for Aqueous solubility: in water. The text has this: Aqueous solubility measurements were done on L-Se-methylselenocysteine and γ-L-glutamyl-L-Se-methylselenocysteine; The solubility of L-Se-methylselenocysteine was ca. 10% with dissolution occurring in two hours in water.

For `C[Se]CC[C@H](NC(=O)CC[C@H](N)C(=O)O)C(=O)O`, the melting point lay in the range of 192 to 194 °C.
In the case of `C[Se]C[C@H](N)C(=O)O` [L-Se-methylselenocysteine, reference compound], in data set [1], the “Time for dissolution in water” value was “two hours” and the Aqueous solubility result is listed as “ca. 10%”.
Molecule `C[Se]C[C@H](NC(=O)CC[C@H](N)C(=O)O)C(=O)O` [γ-L-glutamyl-L-Se-methylselenocysteine, γ-L-glutamyl-Se-methyl-L-selenocysteine] registered a melting point of 159 to 161 °C. In data set [1], the “Time for dissolution in water” value is on record as “thirty minutes” and the Aqueous solubility entry was “ca. 25%”.

As a reminder, the melting point is the temperature, or range, at which the solid turns liquid.
